The target in the assay is METTL21A (Methyltransferase 21A) (Homo sapiens, UniProt Q8WXB1). The assay is described as follows: SPR. In kind it is binding.

The structures appear in SMILES notation. pKd: −log10 of the molar value.

Among the data in publication PMC12246421 (NPJ Precision Oncology, 2025) are Kd values, retold here.

In general, pKd refers to −log10 of the Kd, conventionally taken in molar units. A low value points to a large Kd.

Chain of METTL21A (Methyltransferase 21A) (Q8WXB1 whole entry): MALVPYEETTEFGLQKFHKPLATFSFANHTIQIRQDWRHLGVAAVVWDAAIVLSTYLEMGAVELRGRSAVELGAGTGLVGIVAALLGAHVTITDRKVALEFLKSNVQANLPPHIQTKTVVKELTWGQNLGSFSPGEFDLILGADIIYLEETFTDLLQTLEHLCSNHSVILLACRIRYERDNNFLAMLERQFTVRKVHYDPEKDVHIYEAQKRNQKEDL

Consider `O=c1c(-c2ccc(O[C@@H]3O[C@H](CO)[C@@H](O)[C@H](O)[C@H]3O)cc2)coc2cc(O)cc(O)c12` [Sop, sophoricoside], for which the pKd was 3.91.
